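Compound exposure: 48 hours, 5 concentrations, 96-well plates. At the GI50, growth is halved.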 The source made the active and inactive calls. Cut-off read from the data, not from the text of the source: active = GI50 up to about 1.1 µM and inactive = higher.
How the values were obtained:
Assay in all cases: growth of human tumour cells (NCI), 48 h
[1] = system: SNB-75
[2] = system: K562
[3] = system: OVCAR-5
[4] = system: TK-10
[5] = system: SW-620
[6] = system: HT-29
[7] = system: DU-145
[8] = system: KM12
[9] = system: COLO 205
[10] = system: SK-MEL-28
[11] = system: HCT-116
[12] = system: SR
[13] = system: NCI-H522
[14] = system: OVCAR-3
[15] = system: U-251
[16] = system: A498
[17] = system: MDA-MB-435
[18] = system: NCI-H23
[19] = system: LOX IMVI
[20] = system: HOP-62
[21] = system: NCI/ADR-RES
[22] = system: SF-539
[23] = system: HOP-92
[24] = system: T47D
[25] = system: UACC-257
[26] = system: NCI-H460
[27] = system: BT-549
[28] = system: IGROV-1
[29] = system: NCI-H226
[30] = system: UO-31
[31] = system: PC-3
[32] = system: OVCAR-4
[33] = system: Hs-578T
[34] = system: HCC 2998
[35] = system: Malme-3M
[36] = system: ACHN
[37] = system: MDA-N
[38] = system: MCF7
[39] = system: SN12C
[40] = system: CCRF-CEM
[41] = system: SF-268
[42] = system: SK-MEL-5
[43] = system: MOLT-4
[44] = system: EKVX
[45] = system: HCT-15
[46] = system: RXF 393
[47] = system: RPMI-8226
[48] = system: 786-0
[49] = system: SK-OV-3
[50] = system: UACC-62
[51] = system: SK-MEL-2
[52] = system: CAKI-1
[53] = system: SF-295
[54] = system: MDA-MB-231
[55] = system: SNB-19
[56] = system: OVCAR-8
[57] = system: M14
[58] = system: A549
[59] = system: HL-60

Measured: GI50

O=c1[nH]cnc2c1ncn2[C@H]1CO[C@@H](CO)[C@@H]1O
> 100 µM: [45]
inactive: [1] > 100 µM | [2] > 100 µM | [3] > 100 µM | [4] > 100 µM | [5] > 100 µM | [6] > 100 µM | [7] > 100 µM | [8] > 100 µM | [9] > 100 µM | [10] > 100 µM | [11] > 100 µM | [12] > 100 µM | [13] > 100 µM | [14] > 100 µM | [15] > 100 µM | [16] > 100 µM | [17] > 100 µM | [18] > 100 µM | [19] > 100 µM | [20] > 100 µM | [21] > 100 µM | [22] > 100 µM | [23] > 100 µM | [24] > 100 µM | [25] > 100 µM | [26] > 100 µM | [27] > 100 µM | [28] > 100 µM | [29] > 100 µM | [30] > 100 µM | [31] > 100 µM | [32] > 100 µM | [33] > 100 µM | [34] > 100 µM | [35] > 100 µM | [36] > 100 µM | [37] > 100 µM | [38] > 100 µM | [39] > 100 µM | [40] > 100 µM | [41] > 100 µM | [42] > 100 µM | [43] > 100 µM | [44] > 100 µM | [46] > 100 µM | [47] > 100 µM | [48] > 100 µM | [49] > 100 µM | [50] > 100 µM | [51] > 100 µM | [52] > 100 µM | [53] > 100 µM | [54] > 100 µM

CCCCCCCCCCCCCCCCCCNc1ccn(C2OC(COP(=O)(O)OCC3OC(n4cc(C)c(=O)[nH]c4=O)CC3O)C(O)C2O)c(=O)n1 (stereo not given)
inactive: [1] 17.5 µM | [2] 19.8 µM | [3] 14.8 µM | [4] 5.68 µM | [5] 15.2 µM | [6] 16.7 µM | [7] 17.8 µM | [8] 18.3 µM | [9] 14.9 µM | [10] 17.5 µM | [55] 15.4 µM | [11] 17.1 µM | [12] 11.9 µM | [13] 15.8 µM | [56] 17.8 µM | [14] 19 µM | [15] 18.9 µM | [16] 24.8 µM | [17] 16.9 µM | [18] 15.2 µM | [19] 17.7 µM | [20] 16.7 µM | [21] 15.8 µM | [22] 17.3 µM | [57] 17 µM | [58] 17.8 µM | [23] 29.9 µM | [24] 17.3 µM | [25] 18.1 µM | [26] 17.9 µM | [27] 14.7 µM | [29] 23.7 µM | [30] 18.5 µM | [31] 3.1 µM | [32] 15.1 µM | [33] 19.4 µM | [34] 16.7 µM | [35] 16.6 µM | [36] 21.1 µM | [37] 18.4 µM | [38] 34.6 µM | [39] 17.7 µM | [40] 10.4 µM | [41] 17.4 µM | [42] 14.9 µM | [43] 10.6 µM | [44] 19.4 µM | [46] 12 µM | [47] 16.1 µM | [48] 18 µM | [49] 17.1 µM | [50] 18.4 µM | [52] 18.4 µM | [53] 18.7 µM | [54] 14.6 µM
16.1 µM: [45]

COC1=CC2(C=CC1=O)CCNC1=C2C(=O)c2nc[nH]c2C1=O (stereo not given)
> 100 µM: [45]
inactive: [1] > 100 µM | [2] > 100 µM | [3] > 100 µM | [4] > 100 µM | [5] > 100 µM | [6] > 100 µM | [7] > 100 µM | [8] > 100 µM | [9] > 100 µM | [10] > 100 µM | [55] > 100 µM | [11] > 100 µM | [12] > 100 µM | [13] 32.3 µM | [56] > 100 µM | [14] 41.8 µM | [15] > 100 µM | [16] > 100 µM | [17] > 100 µM | [18] > 100 µM | [59] > 100 µM | [19] > 100 µM | [20] > 100 µM | [21] > 100 µM | [22] > 100 µM | [57] > 100 µM | [58] > 100 µM | [23] > 100 µM | [24] > 100 µM | [25] > 100 µM | [26] > 100 µM | [27] > 100 µM | [28] > 100 µM | [30] > 100 µM | [31] > 100 µM | [32] > 100 µM | [33] > 100 µM | [34] > 100 µM | [35] > 100 µM | [36] > 100 µM | [37] > 100 µM | [38] > 100 µM | [39] > 100 µM | [40] > 100 µM | [41] > 100 µM | [42] > 100 µM | [43] > 100 µM | [44] > 100 µM | [46] > 100 µM | [47] > 100 µM | [48] > 100 µM | [49] > 100 µM | [50] > 100 µM | [51] > 100 µM | [52] > 100 µM | [53] > 100 µM | [54] > 100 µM

O=C1CSC2=NC3=C(COC/C3=C\c3ccc(F)cc3)C(c3ccc(F)cc3)N12 (stereo not given)
37.2 µM: [45]
inactive: [1] > 100 µM | [2] 34.4 µM | [3] > 100 µM | [4] 99.5 µM | [5] 46 µM | [7] 35.2 µM | [8] 75 µM | [9] 42.8 µM | [55] 94.2 µM | [11] 35.9 µM | [12] 20.7 µM | [13] 28.2 µM | [56] 55.7 µM | [14] 49.7 µM | [15] 63.7 µM | [16] > 100 µM | [17] 65.2 µM | [18] 73.1 µM | [59] 12.6 µM | [19] 52 µM | [20] > 100 µM | [21] 58.9 µM | [22] > 100 µM | [57] 35.5 µM | [23] 93.5 µM | [24] 58.5 µM | [25] > 100 µM | [26] 38.1 µM | [27] > 100 µM | [28] 86.7 µM | [29] > 100 µM | [30] 38.4 µM | [31] 34.8 µM | [32] 50.9 µM | [33] > 100 µM | [34] 48.6 µM | [36] 71 µM | [37] 41.7 µM | [38] 42 µM | [39] > 100 µM | [40] 25.8 µM | [41] > 100 µM | [42] 71.4 µM | [43] 20.6 µM | [44] 83.8 µM | [46] 59.8 µM | [47] 14.9 µM | [48] 59.4 µM | [49] > 100 µM | [50] > 100 µM | [51] 99.5 µM | [52] > 100 µM | [53] 52.5 µM | [54] > 100 µM

[O-][N+]1(CC[N+]2([O-])CCCCC2)CCCCC1
> 100 µM: [45]
inactive: [1] > 100 µM | [2] > 100 µM | [3] > 100 µM | [4] > 100 µM | [5] > 100 µM | [6] > 100 µM | [7] > 100 µM | [8] > 100 µM | [9] > 100 µM | [10] > 100 µM | [55] > 100 µM | [11] > 100 µM | [12] > 100 µM | [13] > 100 µM | [56] > 100 µM | [14] > 100 µM | [15] > 100 µM | [16] > 100 µM | [17] > 100 µM | [18] > 100 µM | [59] > 100 µM | [19] > 100 µM | [20] > 100 µM | [21] > 100 µM | [22] > 100 µM | [57] > 100 µM | [58] > 100 µM | [23] > 100 µM | [24] > 100 µM | [26] > 100 µM | [27] > 100 µM | [28] > 100 µM | [29] > 100 µM | [30] > 100 µM | [31] > 100 µM | [32] > 100 µM | [33] > 100 µM | [35] > 100 µM | [36] > 100 µM | [37] > 100 µM | [38] > 100 µM | [39] > 100 µM | [40] > 100 µM | [41] > 100 µM | [42] > 100 µM | [43] > 100 µM | [44] > 100 µM | [46] > 100 µM | [47] > 100 µM | [48] > 100 µM | [49] > 100 µM | [50] > 100 µM | [51] > 100 µM | [52] > 100 µM | [53] > 100 µM | [54] > 100 µM
